Results reported in patent publication US8410107B2, “N-pyridin-3-yl or N-pyrazin-2-yl carboxamides” (Hoffmann-La Roche Inc., priority 2010, dated 2013).

Legend:
human CB2 receptor = target: T1, human CB2 receptor (Homo sapiens, UniProt P34972); assay: CB2 receptor affinity ([3H]-CP-55,940 displacement, HEK cell membranes); format: binding; conditions: displacement of radioligand [3H]-CP-55,940
T1 construct: expressed in transfected cells; host or cells: human embryonic kidney (HEK) cells, Semliki Forest Virus system, membrane preparations
Description: (§1) The affinity of the compounds of the invention for cannabinoid CB2 receptors was determined using membrane preparations of human embryonic kidney (HEK) cells in which the human CB2 receptor is transiently transfected using a Semliki Forest Virus system in conjunction with [^3H]-CP-55,940 as radioligand. After incubation of freshly prepared cell membrane preparation with the [^3H]-ligand, with or without addition of compounds of the invention, separation of bound and free ligand was performed by filtration over glass fiber filters. Radioactivity on the filter was measured by scintillation counting.
(§2) The ability of the compounds to displace the radioligand [^3H]-CP-55,940 was measured at a concentration of 10 μM and values provided as [% inhibition @ 10 μM] both for the CB1 and CB2 receptor assay, The lower % inhibition is, the lower the likelihood of side effects based on CB1 or CB2 receptor inhibition is.

human CB1 receptor = target: T2, human CB1 receptor (Homo sapiens, UniProt P21554); assay: CB1 receptor affinity ([3H]-CP-55,940 displacement, HEK cell membranes); format: binding; conditions: displacement of radioligand [3H]-CP-55,940
T2 construct: expressed in transfected cells; host or cells: human embryonic kidney (HEK) cells, Semliki Forest Virus system, membrane preparations
Description: as §1, with “cannabinoid” for “cannabinoid CB2”, “CB1” for “CB2”, “[3H]-CP-55,940” for “[^3H]-CP-55,940”
as §2

ABCA1 protein = assay: Detection of upregulation of ABCA1 protein in cells (ApoA-I binding, high content image analysis); format: cell-based; conditions: THP-1 macrophage cells; for EC50: ABCA1 protein increasing efficacy; for % increase of ABCA1 at 3 μM: 24 hrs with compound
Description: The ability of compounds of the invention to increase the level of ABCA1 protein is determined in replicate cultures of THP-1 macrophage cells in 96-well microplates. Cells are plated at an initial density of 100,000 cells/well in 100 μl medium and differentiated to adherent macrophages with the addition of PMA (100 nM) for 68 hrs in 10% fetal bovine serum, 3 μl/L of b-mercaptoethanol, RPMI-1640 medium. Then, cells are incubated with RPMI-1640 medium containing 1% FCS, 25 μg/ml acetylated LDL, for 24 hours at 37°. Following incubation with acetylated LDL, cells are washed twice with 50 μl PBS and incubated with 100 μl of RPMI-1640 medium containing the compound of interest solubilized in DMSO for an additional 24 hrs. The final DMSO concentration in presence of cells is maintained at 0.5%. ApoA-I binding assay using High Content Image Analysis is initiated by replacing with fresh medium, RPMI without Phenol Red, 0.2% BSA containing AlexaFluor®647 labeled ApoA-I for 2 h/37° C./5% CO2. Then, cells are fixed with 4% Formaldehyde inPBS (15 min, RT). Following Nuclei are stained with Hoechst solution (3 μM PBS) and Cytoplasm with Cell Mask Blue (2 μg/ml PBS), 15 min, RT. Finally the stained cells are fixed with a second round of formaldehyde treatment. Fixed stained cells are washed and kept in PBS at 4° C. and can be read immediately until one month after preparation.
The Alexa Fluor 647-labeled Apolipoprotein A-I (20 nM) was prepared as follows: Human recombinant Apolipoprotein A-I (ApoA-I) was exchanged to a buffer of 0.02 M NaHCO3 at pH 8.2 on an NAP desalting column (GE Healthcare) and brought to a concentration to 40 μM (1.13 mg/ml) by adjustment with the same buffer. The ApoA-I was fluorescently labeled by incubation with Alexa Fluor carboxylic acid succimidyl ester. (Alexa Fluor 647, Invitrogen A-20006) at a 2:1 molar ratio (Alexa to ApoA-I) for 1 h under shaking at RT. The remaining unconjugated label was removed by buffer exchange to 0.02M NaHCO3 at pH 8.2.
Imaging and data collection were performed on an OPERA confocal microplate imaging reader using a 20× water immersion objective and UV360 or 405 laser to identify the cell nuclei and a 635 laser to identify the fluorescent ApoA-I. Eight fields of view are captured per well. Image capture and analysis was performed with the Acapella software. Background fluorescence detected in control wells without ApoA-I was subtracted.
Using XLfit3 program (ID Business Solutions Ltd. UK), the model 205 for Dose Response One Site is used to calculate the EC50 values. The compounds of the present invention increase the level of ABCA1 protein by more than 45% at a concentration of 3 μM. […] Even more preferably, the compounds of the present invention have EC50 values in a range of 0.1 μM to 3 μM.

T2 sequence (P21554 whole entry): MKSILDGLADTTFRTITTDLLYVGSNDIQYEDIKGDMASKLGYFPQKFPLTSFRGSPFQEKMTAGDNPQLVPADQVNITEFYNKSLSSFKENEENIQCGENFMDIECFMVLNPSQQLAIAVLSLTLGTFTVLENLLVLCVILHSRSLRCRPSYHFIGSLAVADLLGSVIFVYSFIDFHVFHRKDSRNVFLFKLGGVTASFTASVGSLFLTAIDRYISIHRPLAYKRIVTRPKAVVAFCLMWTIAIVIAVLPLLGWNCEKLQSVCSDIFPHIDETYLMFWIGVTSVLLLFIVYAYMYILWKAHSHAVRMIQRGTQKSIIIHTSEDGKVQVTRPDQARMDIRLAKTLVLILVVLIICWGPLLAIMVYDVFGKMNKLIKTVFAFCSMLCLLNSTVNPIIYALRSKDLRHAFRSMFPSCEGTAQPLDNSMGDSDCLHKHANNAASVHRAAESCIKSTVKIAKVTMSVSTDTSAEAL
T1 sequence (P34972 whole entry): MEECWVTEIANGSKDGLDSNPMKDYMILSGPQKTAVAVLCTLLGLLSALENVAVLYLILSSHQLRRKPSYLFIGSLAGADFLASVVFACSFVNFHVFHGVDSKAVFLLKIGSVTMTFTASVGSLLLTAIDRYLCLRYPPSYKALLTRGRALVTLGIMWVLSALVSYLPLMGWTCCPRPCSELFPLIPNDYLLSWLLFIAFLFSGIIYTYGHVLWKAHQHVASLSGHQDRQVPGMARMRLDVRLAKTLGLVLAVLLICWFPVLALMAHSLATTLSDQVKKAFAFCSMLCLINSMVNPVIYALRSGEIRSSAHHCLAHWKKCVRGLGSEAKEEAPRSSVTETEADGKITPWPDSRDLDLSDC

With `Cn1nccc1C(=O)Nc1cnc(OCC(F)(F)F)c(-c2ccc(Cl)cc2)c1` [Example 20, 1-methyl-1H-pyrazole-5-carboxylic acid[5-(4-chloro-phenyl)-6-(2,2,2-trifluoro-ethoxy)-pyridin-3-yl]-amide] the inhibition at 10 µM (human CB2 receptor) was 9%, the inhibition at 10 µM (human CB1 receptor) was 34% and the EC50 (ABCA1 protein) was 6400 nM.
In the case of `Cc1nc(C)c(C(=O)Nc2cnc(OCC(F)(F)F)c(-c3ccc(Cl)cc3)c2)o1` [Example 21, 2,4-dimethyl-5-oxazolecarboxylic acid[5-(4-chloro-phenyl)-6-(2,2,2-trifluoro-ethoxy)-pyridin-3-yl]-amide], the inhibition at 10 µM (human CB2 receptor) is reported as 1%, the inhibition at 10 µM (human CB1 receptor) is reported as 29% and the EC50 (ABCA1 protein) is reported as 1370 nM.
For `O=C(Nc1cnc(OCC(F)(F)F)c(-c2ccc(Cl)cc2)c1)c1ccns1` [Example 22, 5-isothiazolecarboxylic acid[5-(4-chloro-phenyl)-6-(2,2,2-trifluoro-ethoxy)-pyridin-3-yl]-amide], the inhibition at 10 µM (human CB2 receptor) was 8%, the inhibition at 10 µM (human CB1 receptor) was 45% and the “% increase of ABCA1 at 3 μM” value (ABCA1 protein) was >45% @ 3 μM.
Compound `Cc1cc(C(=O)Nc2cnc(OCC(F)(F)F)c(-c3ccc(Cl)cc3)c2)n[nH]1` [Example 23, 5-methyl-1H-pyrazole-3-carboxylic acid[5-(4-chloro-phenyl)-6-(2,2,2-trifluoro-ethoxy)-pyridin-3-yl]-amide] has an inhibition at 10 µM (human CB2 receptor) of -8%, an inhibition at 10 µM (human CB1 receptor) of 12% and an EC50 (ABCA1 protein) of 720 nM.
`O=C(Nc1cnc(OCC(F)(F)F)c(-c2ccc(Cl)cc2)c1)c1cc[nH]n1` [Example 24, 1H-pyrazole-3-carboxylic acid[5-(4-chloro-phenyl)-6-(2,2,2-trifluoro-ethoxy)-pyridin-3-yl]-amide] showed an inhibition at 10 µM (human CB2 receptor) of -1%, an inhibition at 10 µM (human CB1 receptor) of 25% and an EC50 (ABCA1 protein) of 2310 nM.
`Cc1cc(C(=O)Nc2cnc(OCC(F)(F)F)c(-c3ccc(Cl)cc3)c2)ccn1` [Example 25, N-[5-(4-chloro-phenyl)-6-(2,2,2-trifluoro-ethoxy)-pyridin-3-yl]-2-methyl-4-pyridinecarboxylic acid amide] showed an inhibition at 10 µM (human CB2 receptor) of -1%, an inhibition at 10 µM (human CB1 receptor) of 25% and an EC50 (ABCA1 protein) of 2650 nM.
In the case of `Cc1cnc(C(=O)Nc2cnc(OCC(F)(F)F)c(-c3ccc(Cl)cc3)c2)s1` [Example 26, 5-methyl-2-thiazole-carboxylic acid[5-(4-chloro-phenyl)-6-(2,2,2-trifluoro-ethoxy)-pyridin-3-yl]-amide], the inhibition at 10 µM (human CB2 receptor) is reported as 11%, the inhibition at 10 µM (human CB1 receptor) is reported as 37% and the “% increase of ABCA1 at 3 μM” value (ABCA1 protein) is reported as >45% @ 3 μM.
In the case of `Cc1nnsc1C(=O)Nc1cnc(OCC(F)(F)F)c(-c2ccc(Cl)cc2)c1` [Example 27, 4-methyl-1,2,3-thiadiazole-5-carboxylic acid[5-(4-chloro-phenyl)-6-(2,2,2-trifluoro-ethoxy)-pyridin-3-yl]-amide], the inhibition at 10 µM (human CB2 receptor) is reported as 10%, the inhibition at 10 µM (human CB1 receptor) is reported as 47% and the “% increase of ABCA1 at 3 μM” value (ABCA1 protein) is reported as >45% @ 3 μM.
With `Cc1ccc(C(=O)Nc2cnc(OCC(F)(F)F)c(-c3ccc(Cl)cc3)c2)cn1` [Example 28, N-[5-(4-chloro-phenyl)-6-(2,2,2-trifluoro-ethoxy)-pyridin-3-yl]-6-methyl-3-pyridinecarboxylic acid amide] the inhibition at 10 µM (human CB2 receptor) was -6%, the inhibition at 10 µM (human CB1 receptor) was 36% and the “% increase of ABCA1 at 3 μM” value (ABCA1 protein) was >45% @ 3 μM.
`Cc1ncccc1C(=O)Nc1cnc(OCC(F)(F)F)c(-c2ccc(Cl)cc2)c1` [Example 29, N-[5-(4-chloro-phenyl)-6-(2,2,2-trifluoro-ethoxy)-pyridin-3-yl]-2-methyl-3-pyridinecarboxylic acid amide] was tested, and the inhibition at 10 µM (human CB2 receptor) was 19%, the inhibition at 10 µM (human CB1 receptor) was 41% and the “% increase of ABCA1 at 3 μM” value (ABCA1 protein) was >45% @ 3 μM.
`O=C(Nc1cnc(OCC(F)(F)F)c(-c2ccc(Cl)cc2)c1)c1ccno1` [Example 30, 5-isoxazolecarboxylic acid[5-(4-chloro-phenyl)-6-(2,2,2-trifluoro-ethoxy)-pyridin-3-yl]-amide] gave an inhibition at 10 µM (human CB2 receptor) of -4%, an inhibition at 10 µM (human CB1 receptor) of 27% and an EC50 (ABCA1 protein) of 3860 nM.
For `Cc1noc(C)c1C(=O)Nc1cnc(OCC(F)(F)F)c(-c2ccc(Cl)cc2)c1` [Example 31, 3,5-dimethyl-4-isoxazolecarboxylic acid[5-(4-chloro-phenyl)-6-(2,2,2-trifluoro-ethoxy)-pyridin-3-yl]-amide], the inhibition at 10 µM (human CB2 receptor) was 7%, the inhibition at 10 µM (human CB1 receptor) was 44% and the “% increase of ABCA1 at 3 μM” value (ABCA1 protein) was >45% @ 3 μM.
In the case of `O=C(Nc1cnc(OCC(F)(F)F)c(-c2ccc(Cl)cc2)c1)c1ccnc(O)c1` [Example 32, N-[5-(4-chloro-phenyl)-6-(2,2,2-trifluoro-ethoxy)-pyridin-3-yl]-1,2-dihydro-2-oxo-4-pyridinecarboxylic acid amide], the inhibition at 10 µM (human CB2 receptor) is reported as 0.9%, the inhibition at 10 µM (human CB1 receptor) is reported as 21% and the EC50 (ABCA1 protein) is reported as 1000 nM.
With `Cc1nn(C)cc1C(=O)Nc1cnc(OCC(F)(F)F)c(-c2ccc(Cl)cc2)c1` [Example 33, 1,3-dimethyl-1H-pyrazole-4-carboxylic acid[5-(4-chloro-phenyl)-6-(2,2,2-trifluoro-ethoxy)-pyridin-3-yl]-amide] the inhibition at 10 µM (human CB2 receptor) was -2%, the inhibition at 10 µM (human CB1 receptor) was 22% and the “% increase of ABCA1 at 3 μM” value (ABCA1 protein) was >45% @ 3 μM.
With `O=C(Nc1cnc(OCC(F)(F)F)c(-c2ccc(Cl)cc2)c1)c1ccncn1` [Example 34, 4-pyrimidinecarboxylic acid[5-(4-chloro-phenyl)-6-(2,2,2-trifluoro-ethoxy)-pyridin-3-yl]-amide] the inhibition at 10 µM (human CB2 receptor) was 10%, the inhibition at 10 µM (human CB1 receptor) was 31% and the EC50 (ABCA1 protein) was 2400 nM.
In the case of `O=C(Nc1cnc(OCC(F)(F)F)c(-c2ccc(Cl)cc2)c1)c1nccs1` [Example 35, 2-thiazolecarboxylic acid[5-(4-chloro-phenyl)-6-(2,2,2-trifluoro-ethoxy)-pyridin-3-yl]-amide], the inhibition at 10 µM (human CB2 receptor) is reported as -3%, the inhibition at 10 µM (human CB1 receptor) is reported as 18% and the “% increase of ABCA1 at 3 μM” value (ABCA1 protein) is reported as >45% @ 3 μM.
`Cc1cccnc1C(=O)Nc1cnc(OCC(F)(F)F)c(-c2ccc(Cl)cc2)c1` [Example 36, 3-methyl-2-pyridinecarboxylic acid[5-(4-chloro-phenyl)-6-(2,2,2-trifluoro-ethoxy)-pyridin-3-yl]-amide] showed an inhibition at 10 µM (human CB2 receptor) of 2%, an inhibition at 10 µM (human CB1 receptor) of 18% and an EC50 (ABCA1 protein) of 510 nM.
With `Cc1ocnc1C(=O)Nc1cnc(OCC(F)(F)F)c(-c2ccc(Cl)cc2)c1` [Example 37, 5-methyl-4-oxazolecarboxylic acid[5-(4-chloro-phenyl)-6-(2,2,2-trifluoro-ethoxy)-pyridin-3-yl]-amide] the inhibition at 10 µM (human CB2 receptor) was 8%, the inhibition at 10 µM (human CB1 receptor) was 27% and the “% increase of ABCA1 at 3 μM” value (ABCA1 protein) was >45% @ 3 μM.
With `Cc1ccc(-c2cc(NC(=O)c3cccnc3)cnc2OCC(F)(F)F)cc1C` [Example 38, N-(5-(3,4-dimethylphenyl)-6-(2,2,2-trifluoroethoxy)pyridin-3-yl)nicotinamide] the inhibition at 10 µM (human CB2 receptor) was 15%, the inhibition at 10 µM (human CB1 receptor) was 12% and the EC50 (ABCA1 protein) was 2910 nM.
With `Cc1cc(-c2cc(NC(=O)c3cccnc3)cnc2OCC(F)(F)F)ccc1Cl` [Example 39, N-(5-(4-chloro-3-methylphenyl)-6-(2,2,2-trifluoroethoxy)pyridin-3-yl)nicotin-amide] the inhibition at 10 µM (human CB2 receptor) was 16%, the inhibition at 10 µM (human CB1 receptor) was 19% and the EC50 (ABCA1 protein) was 2230 nM.
